Laboratory results as given in publication PMC10938783, “A novel pan-PI3K inhibitor KTC1101 synergizes with anti-PD-1 therapy by targeting tumor suppression and immune activation” (Molecular Cancer, 2024).

What was measured:
[1] = system: immune cell populations in B16 tumors; experiment: Flow cytometry of tumor-infiltrating immune cells; type: in vivo, mouse; details: intermittent dosing
Method: To obtain single-cell suspensions for analysis by flow cytometry, tumors were excised, minced, and dissociated in Deoxyribonuclease/collagenase/hyaluronidase buffer (0.1 mg/mL Deoxyribonuclease I, 0.2 mg/mL Collagenase IV and 0.2 mg/mL Hyaluronidase) for 60 min at 37 °C with agitation, and strained through a 70 μm strainer for downstream applications. Tissue was dissociated as described above to obtain single-cell suspensions. Cells were stained with antibodies for 30 min at 4 °C, and then fixed and intracellularly stained using Foxp3/ Transcription Factor Staining Buffer Set (eBioscience) according to the manufacturer’s instructions. Antibodies used in this study can be found in Supplementary Table 2. The stained cells were acquired on a BD C6 Flow Cytometer using BD AccuriTM C6 Software (BD Biosciences) and the data were processed using FlowJo software.

CAL33 tumors = experiment: CAL33 xenograft in NSG mice; type: in vivo, mouse; details: 100 mg/kg PO
Method: (§1) BALB/c nude, NSG, and C57BL/6J mice were obtained from Tianjin Medical University. The housing temperature was controlled, ranging from 20.5–24 °C, and humidity was monitored but not controlled ranging from 30–70%. The 12-h daily light cycle was from 06:00 to 18:00. To generate a murine subcutaneous tumor model, PC3 and HSC2 cells were subcutaneously injected into the right lateral flank of 4- to 5-week-old male BALB/c nude mice. TMD8, CAL33, and S24 cells were subcutaneously injected into the right lateral flank of 4- to 5-week-old male NSG mice. When tumors reached a volume of 300–500 mm^3, they were excised, diced into 2 mm × 2 mm × 2 mm pieces, and implanted into the right flanks of BALB/c nude or NSG mice. Tumors were allowed to grow to a volume of 100 mm^3, and then the animals were randomly divided into several groups. Each group of five mice was treated with either vehicle or KTC1101 (25, 50, or 100 mg/kg, PO). Tumor size was measured every 3 d or 4 d until the endpoint. The tumor volume was calculated using the following formula: length × width × height/2. At the end of the experimental period, mice were euthanized by overdosing on pentobarbital sodium, and the tumors were removed. Tumor tissue was formalin-fixed and paraffin-embedded for histological analysis.

S24 cells = experiment: Cell proliferation MTT assay; type: cell-based, mouse; details: 48 h
Method: (§2) Cell proliferation was measured by MTT assay as previously described. The cells were seeded in a volume of 200 μL/well in 96-well plates. The next day, cells were treated with DMSO or a series of concentrations of KTC1101. After a 48-h incubation period, 20 μL of MTT (5 mg/mL) was added to each well. After further incubation for 4 h at 37 °C, the absorbance at 490 nm was measured using an iMark microplate reader (BIO-RAD, Hercules, CA, USA).

B16 cells = experiment: Cell proliferation MTT assay; type: cell-based, mouse; details: B16 cells in vitro, 48 h
Method: as §2

CCL5 and CXCL10 = experiment: qRT-PCR and ELISA of chemokines in B16 cells; type: cell-based, mouse; details: 48 h
Method: qRT-PCR was performed as previously described. RNA was isolated using Trizol and used to synthesize complementary DNA (cDNA) using a cDNA Synthesis Kit (GenStar), and RT-PCR was performed with aliquots of cDNA samples mixed with SYBR Green MasterMix (Applied Biosystems). Reactions were performed in triplicate.
We examined the secreted cytokines from B16 cells under both in vitro and in vivo conditions. For in vitro-cultured B16 cells, the cells were seeded into six-well plates and treated with either DMSO or a range of KTC1101 concentrations. After 48 h, the total cell count was determined, and the cell culture supernatant was collected for further analysis. For in vivo tumor tissues, the harvested tumor tissues were homogenized. Post-centrifugation, the supernatant was collected and used for protein quantification utilizing a BCA kit. The concentrations of murine CCL5 and CXCL10 in these supernatants were then quantified using specific ELISA kits, in accordance with the manufacturer's instructions.

[2] = Plasma metabolic stability assay; type: in vitro ADME; details: mouse plasma, 37°C, 120 min incubation
Method: 495 µL of plasma was placed in a 96-well plate and pre-incubated at 37°C for 5 min.

S24 tumors = S24 tumors in NSG mice; type: in vivo, mouse; details: 100 mg/kg daily oral gavage
Method: as §1

COc1cc(N)cc2c1nc(C(F)F)n2-c1nc(N2CCCOCC2)nc(N2CCOCC2)n1 [KTC1101, 2-(difluoromethyl)-4-methoxy-1-(4-morpholino-6-(1,4-oxazepan-4-yl)-1,3,5-triazin-2-yl)-1H-benzo[d]imidazol-6-amine]
intratumoral T cell populations (FACS) [1]: increase in intratumoral CD8^+ T, CD4^+ T, and a reduction of Treg cells | tumor growth (CAL33 tumors): Tumor growth arrest | sensitivity in vitro (S24 cells): showed sensitivity | anti-proliferative activity (B16 cells): strong anti-proliferative activity | expression levels of CCL5 and CXCL10 (CCL5 and CXCL10): significantly stimulated | half-life at 1 µM [2]: > 2 h | time until tumors started to progress (S24 tumors): 10 days
